Results reported in patent publication US11998665B2, “Biodegradable ureteral stents, methods and uses thereof” (ASSOCIATION FOR THE ADVANCEMENT OF TISSUE ENGINEERING AND …, priority 2016, dated 2024).
Values after ≈ are worked out from the molar mass of the structure shown. Where two headings read alike, the source gives them in different places.

Columns and labels:
[1] = Quantity of drug impregnated in stents by scCO2 (UV-spectroscopy after degradation in AUS); assay type: physicochemical; settings: for Quantity of drug impregnated by scCO2: 90 min, 100 bar, 40° C.; for increase in the impregnation yield when ethanol was used as a co-solvent: DrugEtOH versus pure scCO2; for % loaded: amount of drug impregnated by scCO2 in BUS
Experimental: In an embodiment, a supercritical CO2 impregnation of anti-cancer drugs was performed, in the biodegradable ureteral stents (BUS) of the present disclosure. The were biodegradable ureteral stents prepared were placed in high-pressure vessel with anti-cancer drugs (10 mg) according to FIG. 2. The anti-cancer drugs were impregnated in the stents with and without the presence of a co-solvent. The scCO2 impregnation conditions used were 100 bar at 40° C. and 90 min. Carbon dioxide was liquefied and pumped to the desired pressure using a membrane pump (MCPV-71, Haskel, Germany). Impregnation took place in batch mode for 90 min followed by fast depressurization of the system. When a co-solvent was employed, 10% (v/v) ethanol was used. A commercial non-degradable ureteral stent (Biosoft® duo, Porges, Coloplast) was impregnated with same drugs at the same conditions with co-solvent, to be used as a control. To enhance the mechanical properties of the stent a PCL coating was applied. To evaluate the effect of coating on the release of the drugs the condition BUS+Co-Solvent was prepared twice and one of this batches was coated with PCL resin.
The anticancer drugs impregnation yield (I) was calculated from Eq. (1): I(%)=mdrug/mstent+mdrug×100 Eq. (1) where mstent is the polymer mass at the beginning of the process and the mdrug is the mass of the respective anticancer drug released after complete degradation of the stents in AUS. Anti-cancer drugs concentration was calculated from a calibration curve prepared from standard solutions. The samples were analyzed by UV-spectroscopy using a microplate reader (SpectraMax i3, Molecular Devices, USA) at the maximum absorbance for each drug (227 nm for PA, 254 nm for EP and DOX and 268 nm for GEM). All the experiments were performed in triplicate.
In an embodiment, impregnation efficiency of anti-cancer drugs in the biodegradable ureteral stents (BUS) was determined as a function of mass (μg) of anti-cancer drugs per mass (mg) of the polymer. In the DrugEtOH conditions, the amount of anti-cancer drug impregnated in the stents is higher, as it would be expected due to the co-solvent effect of ethanol in the enhancement of drug the solubility in CO2. The amount of impregnated paclitaxel in pure scCO2 (PAbio) was 0.046 μg mg-1, whereas those in PAEtOH condition was […] (0.067 μg mg-1). A similar percentage was reported by Yoda et al. (Yoda et al., 2011) in which the authors report the impregnation of paclitaxel in an amorphous poly(DL-lactic acid) (PDLLA) matrix. The amount of paclitaxel impregnated by Yoda et al. in PDLLA was 2-3 times higher compared with the alginate/gelatin matrix obtained in this work. This can be justified by the higher affinity of the drug-CO2 solution in the hydrophobic PDLLA matrix (Kazarian, 2000). Furthermore, PDLLA may also have greater swelling in the presence of scCO2 than the alginate/gelatin polymer blend (Cooper, 2000; Yoda et al., 2011). […] In the case of the Biosoft® duo, Porges, Coloplast stents the amount of drug impregnated is 6-times lower compared with BUS impregnated with paclitaxel under the same conditions. The lower amount of drug impregnated can be related with lower swelling ability of the polymeric matrix of the commercial stent in scCO2 and/or by lower affinity of the drugs with composition material of the Biosoft® duo, Porges, Coloplast stent.

[2] = tested on: HUVEC cells (human umbilical vein endothelial cells); assay: MTT cell viability, free anti-cancer drugs, IC50 determination in HUVEC cells; assay type: cell-based
Experimental: (§1) In an embodiment, the present disclosure used a human urothelial carcinoma cell line, T24 (ATCC, U.S.A.) as a cancer cell line to model the urothelial carcinoma and human umbilical vein endothelial cells, HUVEC, (ATCC, U.S.A.) as a control, non-cancerous cell line. The T24 cell line and HUVEC cells were cultured in RPMI-1640 and EGM™-2 medium, respectively, with (10% fetal bovine serum (FBS), 1 mM L-glutamine and 1% penicillin/streptomyocin), Cells were maintained at 37° C. in a humidified 5% CO2 atmosphere.
(§2) In an embodiment, in vitro efficacy of anti-cancer drugs against T24 cells and HUVEC cells-IC50 determination. The cytotoxicity of paclitaxel, epirubicin, doxorubicin and gemcitabine was evaluated by determining the viability of T24 and HUVEC cells after exposure to medium containing the free drug at a range of concentrations from 0.01 to 2000 ng/ml. Free drugs in medium were prepared by first dissolving the anticancer drugs in DMSO (50 mg/ml) and this solution was then diluted in culture medium to achieve the desired concentration. A standard MTT cell proliferation assay (CellTiter 96® Aqueous One Solution Cell Proliferation Assay) was used to test cell viability and was performed on both cell lines to determine the half maximal inhibitory concentration (1050) of each drug. 5000 cells per well were seeded in a 96-well plate with 100 μl medium for T24 and HUVEC cells. After incubation for 24 h, the medium in each well was aspirated off and the cells were exposed to 100 μl of fresh medium containing the drugs at various concentrations for 4 h and 72 h. The cells after 4 h treatment were further cultured for 72 h in fresh (drug-free) medium. After that, the culture medium in each well was replaced by 100 μl of medium and 20 μl of CellTiter 96® AQueous One Solution Reagent, followed by 4 h incubation at 37° C. A latex rubber extract was used as negative control for cell death; while cell culture medium was used as positive control. Cell viability was quantified by UV-spectroscopy, reading the formazan absorbance at 490 nm in a microplate reader (SpectraMax i3, Molecular Devices, USA). Each sample formulation and control was tested using 12 replicates.
(§3) In an embodiment, the 1050 was determined from the fitting of the curve of cell viability, measured by MTT and the drug concentration. The fitting was performed using GraphPad software (GraphPad Prism 6.00 software, San Diego, USA).
(§4) In an embodiment, the effect of the anti-cancer drugs (IC50) when in contact with T24 and HUVEC cells was investigated by a cell viability test, namely the MTT assay. From this, the IC50 was calculated for each of the four drugs in each of the two cell lines. In this case, IC50 is a measure of the concentration needed to inhibit cell survival, and is routinely used to specify the in vitro potency of a drug (Sebaugh, 2011). The T24 cell line was chosen as a muscle invasive urothelial cancer and the HUVEC cells were used as non-cancerous control cells. The cytotoxicity evaluation was carried out either after 4 h or 72 h of exposure of the cells to the free drugs at different concentrations (FIGS. 5 A and B). […] In FIGS. 5 (A and B) it is possible to see, for both cell types the trend of concentration-dependent cytotoxicity. These are similar, in all cases and as it would be expected the 72 h exposure present a higher killing efficacy. Comparing the results between the two cells it is possible to conclude that the cancer cells are much more sensitive to the anti-cancer drugs compared with the HUVEC cells.

[3] = tested on: T24 cells (human urothelial carcinoma cell line); assay: MTT cell viability, free anti-cancer drugs, IC50 determination in T24 cells; assay type: cell-based
Experimental: as §1, §2, §3, §4

T24 cancer cells = settings: cited from earlier work
[4] = DrugCom: commercial non-degradable stent with co-solvent
[5] = DrugETOH: BUS + 10% ethanol co-solvent
[6] = Drugbio: BUS without co-solvent
[7] = 4 h exposure then 72 h in drug-free medium
[8] = T-24, 4 h exposure then 72 h in drug-free medium

Quantity of drug impregnated by scCO2 [1, 4] [μgdrug/mgpolymer] | Quantity of drug impregnated by scCO2 [1, 5] [μgdrug/mgpolymer] | increase in the impregnation yield when ethanol was used as a co-solvent [1] [%] | Quantity of drug impregnated by scCO2 [1, 6] [μgdrug/mgpolymer] | IC50 [3, 8] [µg/mL] | IC50 ([3]; T-24, 72 h exposure) [µg/mL] | Quantity of drug impregnated by scCO2 ([1]; DrugETOH: BUS + 10% ethanol co-solvent, listed as gemcitabine) [μgdrug/mgpolymer] | % loaded [1] [%] | SMILES | IC50 [2, 7] [µg/mL] | IC50 ([2]; 72 h exposure) [µg/mL] | IC50 (T24 cancer cells; doxorubicin, T24 cancer cells, Lu et al., 2015a) [µg/mL] | IC50 (T24 cancer cells; doxorubicin, T24 cancer cells, Yu et al., 2015) [µg/mL] | IC50 (T24 cancer cells; paclitaxel, Hadaschik et al., 2008) [µg/mL]
0.118 | 1.779 | 15 | 1.498 | 67 ± 2.34 (≈ 123 µM) | 15.7 ± 1.02 (≈ 29 µM) | – | – | COc1cccc2c1C(=O)c1c(O)c3c(c(O)c1C2=O)C[C@@](O)(C(=O)CO)C[C@@H]3O[C@H]1C[C@H](N)[C@@H](O)[C@H](C)O1 [Epirubicin, epirubicin] | 2050 ± 33.2 (≈ 3770 µM) | 139 ± 13.6 (≈ 256 µM) | – | – | –
2.312 | 19.572 | 8 | 18.183 | 99 ± 1.29 (≈ 376 µM) | 0.89 ± 0.27 (≈ 3.38 µM) | 19.57 | 2 | Nc1ccn([C@@H]2O[C@H](CO)[C@@H](O)C2(F)F)c(=O)n1 [Gemcitabine, gemcitabine] | 413.6 ± 2.68 (≈ 1570 µM) | 237 ± 16.7 (≈ 901 µM) | – | – | –
0.208 | 3.748 | 12 | 3.297 | 187 ± 5.18 (≈ 344 µM) | 29.3 ± 10 (≈ 53.9 µM) | – | – | COc1cccc2c1C(=O)c1c(O)c3c(c(O)c1C2=O)C[C@@](O)(C(=O)CO)C[C@@H]3O[C@H]1C[C@H](N)[C@H](O)[C@H](C)O1 [Doxorubicin, doxorubicin] | 2150 ± 58.2 (≈ 3950 µM) | 647 ± 21.4 (≈ 1190 µM) | 0.0116 (≈ 0.0213 µM) | 4 (≈ 7.36 µM) | –
0.014 | 0.067 | – | 0.046 | 0.282 (≈ 0.33 µM) | 0.0073 (≈ 0.00855 µM) | – | 0.01 | CC(=O)O[C@H]1C(=O)[C@@]2(C)[C@H]([C@H](OC(=O)c3ccccc3)[C@]3(O)C[C@H](OC(=O)[C@H](O)[C@@H](NC(=O)c4ccccc4)c4ccccc4)C(C)=C1C3(C)C)[C@]1(OC(C)=O)CO[C@@H]1C[C@@H]2O [Paclitaxel, paclitaxel] | 0.85 (≈ 0.995 µM) | 0.502 (≈ 0.587 µM) | – | – | 0.00285 (≈ 0.00334 µM)
